Experimental data: US20260207606A1, “DOSING SCHEDULE OF A SOLID DISPERSION OF A HER2 INHIBITOR” (Boehringer Ingelheim International GmbH, priority 2022, published 2026)

What was measured:
NSCLC = assay: Phase Ia dose escalation trial: tumour response according to RECIST v1.1 in NSCLC patients; format: in vivo, human; settings: for Best overall response (RECIST 1.1): Stable disease, % / Best overall response (RECIST 1.1): Complete response, % / Best overall response (RECIST 1.1): Non-CR/Non-PD, % / Best overall response (RECIST 1.1): Not evaluable, % / Best overall response (RECIST 1.1): Partial response, % / Best overall response (RECIST 1.1): Progressive disease, %: regardless of confirmation, data lock 16 Mar. 2023
Source text: Tumour assessments should include computed tomography (CT) scans of the chest, abdomen/pelvis (or PET/CT) and a brain MRI at screening. If clinically indicated, imaging of any other known or suspected sites of disease (e.g. bone) using an appropriate method (CT scan, MRI, PET/CT, or bone scan) should be performed. The same radiographic procedure must be used throughout the trial. Assessments will be performed by the investigator at screening (≤28 days prior to initiation of treatment), every 2 cycles (6 weeks ±5 days), at the end-of-treatment (EOT) visit (if not performed within the previous 3 weeks), and at the discretion of the investigator, and copies may be collected by the sponsor or designee. Wherever possible the assessment schedule should not be changed, but if there is an interruption or delay to treatment, alteration of the tumour assessment schedule to align with clinical assessments is allowed. Additional unscheduled tumour assessments may be performed at the discretion of the investigator. If the patient stops trial medication for a reason other than progression, tumour assessment according to RECIST v1.1 continues until progression (or until one of the following occurs; death, lost to follow-up, end of the trial).
Tumour response is evaluated according to RECIST Version 1.1 (Eisenhauer E A, Therasse P, Bogaerts J, Schwartz L H, Sargent D, Ford R, et al. New response evaluation criteria in solid tumours: revised RECIST guideline (version 1.1). Eur J Cancer. 2009; 45:228-247). RECIST 1.1 is used for a) whole-body assessment (classical RECIST 1.1) and b) the tumour assessment of non-CNS areas. The assessment according to classical RECIST 1.1 by the investigator and/or the local radiologist is the basis for continuation or discontinuation of the trial in an individual patient (in addition to safety). No whole-body RECIST assessment is performed in the dose escalation part.

[1] = Phase Ia dose escalation trial: pharmacokinetics, plasma exposure; format: in vivo; settings: increasing doses, BID and QD
Description: Pharmacokinetic (PK) profiles of compound (1) are investigated after the first and after repeated doses. Standard PK parameters are calculated, if data allows and if scientifically reasonable. […] Statistical analyses are performed.
If deemed necessary, further PK parameters might be used for these assessments.
Preliminary PK analyses can be performed as necessary for DEC decisions. The final preliminary analysis are performed at the end of the dose escalation part prior to proceeding to the dose expansion part. In contrast to the final PK analysis, the preliminary analyses are based on planned sampling times rather than on actual times; no supplementary patient information, e.g. on AEs or concomitant medication, is used in these analyses, and the outputs are not validated. Minor discrepancies between preliminary and final results may therefore occur.

[2] = 5 NSCLC patients pre-treated with trastuzumab deruxtecan, data cut-off 17 Jul. 2023

With `C=CC(=O)NC1CCN(c2ncc3ncnc(Nc4ccc(Oc5ccc6c(c5)ncn6C)c(C)c4)c3n2)CC1` [compound (1), N-{1-[8-({3-methyl-4-[(1-methyl-1H-1,3-benzodiazol-5-yl)oxy]phenyl}amino)-[1,3]diazino[5,4-d]pyrimidin-2-yl]piperidin-4-yl}prop-2-enamide] the “Best overall response (RECIST 1.1): Stable disease, %” value (NSCLC; 100 mg BID, 3 NSCLC patients) was 66.7%, the “Best overall response (RECIST 1.1): Complete response, %” value (NSCLC; 120 mg QD, 4 NSCLC patients) was 0.0% and the “Best overall response (RECIST 1.1): Non-CR/Non-PD, %” value (NSCLC; 120 mg QD, 4 NSCLC patients) was 0.0%. For the same compound, the “Best overall response (RECIST 1.1): Not evaluable, %” value (NSCLC; 120 mg QD, 4 NSCLC patients) was 0.0%, the “Best overall response (RECIST 1.1): Partial response, %” value (NSCLC; 120 mg QD, 4 NSCLC patients) was 50.0% and the “Best overall response (RECIST 1.1): Progressive disease, %” value (NSCLC; 120 mg QD, 4 NSCLC patients) was 25.0%. For the same compound, the “Best overall response (RECIST 1.1): Stable disease, %” value (NSCLC; 120 mg QD, 4 NSCLC patients) was 25.0%, the “Best overall response (RECIST 1.1): Complete response, %” value (NSCLC; 150 mg BID, 2 NSCLC patients) was 0.0% and the “Best overall response (RECIST 1.1): Non-CR/Non-PD, %” value (NSCLC; 150 mg BID, 2 NSCLC patients) was 0.0%. For the same compound, the “Best overall response (RECIST 1.1): Not evaluable, %” value (NSCLC; 150 mg BID, 2 NSCLC patients) was 0.0%, the “Best overall response (RECIST 1.1): Partial response, %” value (NSCLC; 150 mg BID, 2 NSCLC patients) was 50.0% and the “Best overall response (RECIST 1.1): Progressive disease, %” value (NSCLC; 150 mg BID, 2 NSCLC patients) was 0.0%. The “Best overall response (RECIST 1.1): Stable disease, %” value (NSCLC; 150 mg BID, 2 NSCLC patients) was 50.0%, the “Best overall response (RECIST 1.1): Complete response, %” value (NSCLC; 180 mg QD, 5 NSCLC patients) was 0.0% and the “Best overall response (RECIST 1.1): Non-CR/Non-PD, %” value (NSCLC; 180 mg QD, 5 NSCLC patients) was 0.0%. For the same compound, the “Best overall response (RECIST 1.1): Not evaluable, %” value (NSCLC; 180 mg QD, 5 NSCLC patients) was 20.0%, the “Best overall response (RECIST 1.1): Partial response, %” value (NSCLC; 180 mg QD, 5 NSCLC patients) was 20.0% and the “Best overall response (RECIST 1.1): Progressive disease, %” value (NSCLC; 180 mg QD, 5 NSCLC patients) was 0.0%. For the same compound, the “Best overall response (RECIST 1.1): Stable disease, %” value (NSCLC; 180 mg QD, 5 NSCLC patients) was 60.0%, the “Best overall response (RECIST 1.1): Complete response, %” value (NSCLC; 240 mg QD, 5 NSCLC patients) was 0.0% and the “Best overall response (RECIST 1.1): Non-CR/Non-PD, %” value (NSCLC; 240 mg QD, 5 NSCLC patients) was 0.0%. For the same compound, the “Best overall response (RECIST 1.1): Not evaluable, %” value (NSCLC; 240 mg QD, 5 NSCLC patients) was 60.0%, the “Best overall response (RECIST 1.1): Partial response, %” value (NSCLC; 240 mg QD, 5 NSCLC patients) was 40.0% and the “Best overall response (RECIST 1.1): Progressive disease, %” value (NSCLC; 240 mg QD, 5 NSCLC patients) was 0.0%. The “Best overall response (RECIST 1.1): Stable disease, %” value (NSCLC; 240 mg QD, 5 NSCLC patients) was 0.0%, the “Best overall response (RECIST 1.1): Complete response, %” value (NSCLC; 300 mg QD, 5 NSCLC patients) was 0.0% and the “Best overall response (RECIST 1.1): Non-CR/Non-PD, %” value (NSCLC; 300 mg QD, 5 NSCLC patients) was 0.0%. For the same compound, the “Best overall response (RECIST 1.1): Not evaluable, %” value (NSCLC; 300 mg QD, 5 NSCLC patients) was 80.0%, the “Best overall response (RECIST 1.1): Partial response, %” value (NSCLC; 300 mg QD, 5 NSCLC patients) was 0.0% and the “Best overall response (RECIST 1.1): Progressive disease, %” value (NSCLC; 300 mg QD, 5 NSCLC patients) was 0.0%. The “Best overall response (RECIST 1.1): Stable disease, %” value (NSCLC; 300 mg QD, 5 NSCLC patients) was 20.0%, the “tumour shrinkage, mean” value (NSCLC; [2]) was −22.5% and the “tumour shrinkage, median” value (NSCLC; [2]) was −16.1%. The “tumour shrinkage, up to” value (NSCLC; [2]) was −53%, the “Best overall response (RECIST 1.1): Complete response, %” value (NSCLC; BID Total, 11 NSCLC patients) was 0.0% and the “Best overall response (RECIST 1.1): Non-CR/Non-PD, %” value (NSCLC; BID Total, 11 NSCLC patients) was 0.0%. For the same compound, the “Best overall response (RECIST 1.1): Not evaluable, %” value (NSCLC; BID Total, 11 NSCLC patients) was 0.0%, the “Best overall response (RECIST 1.1): Progressive disease, %” value (NSCLC; BID Total, 11 NSCLC patients) was 0.0% and the “Best overall response (RECIST 1.1): Stable disease, %” value (NSCLC; BID Total, 11 NSCLC patients) was 54.5%. The “Best overall response (RECIST 1.1): Complete response, %” value (NSCLC; QD Total, 21 NSCLC patients) was 0.0%, the “Best overall response (RECIST 1.1): Non-CR/Non-PD, %” value (NSCLC; QD Total, 21 NSCLC patients) was 0.0% and the “Best overall response (RECIST 1.1): Not evaluable, %” value (NSCLC; QD Total, 21 NSCLC patients) was 38.1%. For the same compound, the “Best overall response (RECIST 1.1): Partial response, %” value (NSCLC; QD Total, 21 NSCLC patients) was 28.6%, the “Best overall response (RECIST 1.1): Progressive disease, %” value (NSCLC; QD Total, 21 NSCLC patients) was 4.8% and the “Best overall response (RECIST 1.1): Stable disease, %” value (NSCLC; QD Total, 21 NSCLC patients) was 28.6%. For the same compound, the “median duration of response (Kaplan Meier estimates)” value (NSCLC; all treated patients with NSCLC) was 6.9 months and the “dose proportionality of plasma exposure” value [1] was “no apparent deviation from dose proportional pharmacokinetics”.
